≈ marks a conversion by molar mass, not a printed value.
What was measured:
[1] = tested on: Mycobacterium bovis BCG strain TMC1019 (ATCC35737); assay: microbe, parasite or virus in culture; format: cell-based; details: Mycobacterium tuberculosis variant bovis BCG, 24 h, read-out: M. bovis ATCC35737 (ug/mL)
[2] = tested on: Mycobacterium tuberculosis H37Rv strain; assay: In vitro MIC against M. tuberculosis H37Rv strain (MABA, Alamar Blue); format: cell-based
Protocol: Part I: The in vitro efficacy of anti-Mycobacterium tuberculosis compounds was tested using H37Rv strain.
On the day of the test, the compound was dissolved in pure DMSO (Sigma 276855-2L) to a concentration of 10 mg/mL which was used as the mother liquor of the compound. 30 μL of DMSO was added to wells of column 2 to 11 s of the v-bottom 96-well plates (Axygen-wipp02280). 30 μL of the mother liquor of the compound was added to the well of column 2, after mixing, 30 μL was taken from the well of column 2 and added to the well of column 3, and then pipetted and mixed. The operation was taken to column 10. Column 11 was free of medicine and contained only 30 μL of DMSO. This was the “motherplate” of the compound. From column 2 to 11, the corresponding concentration of the compound was 5, 2.5, 1.25, 0.625, 0.3125, 0.156, 0.078, 0.039, 0.02, 0 mg/mL. […] A flat bottom 96-well plate (Greiner 655090) was used as a “daughterplate”. 98 μL of 7H9 (Sigma M0178) medium was added to the wells of all daughterplates. 2 μL of compound was extracted from the motherboard and added to the corresponding daughter plate. Line A and H, column 1 and 12 of the daughterplate contained only 7H9 medium.
The H37Rv strain in the glycerol cryovial was inoculated into 7H9 medium containing 0.05% Tween 80 and cultured for 4 weeks at 37° C. in a shaker with 200 rpm. The bacterial liquid was washed twice with 7H9 medium containing 0.05% Tween 80 and resuspended in the same medium. The absorbance of the bacteria liquid was adjusted to OD550=0.4-0.5 using the same medium. The bacteria liquid was sub-packed in microcentrifuge tubes and stored at −80° C. Storage time was no more than 1 month. On the day of the test, the packaged bacteria liquid would be […]. The bacteria liquid was diluted 20 times and then diluted 50 times with 7H9 medium, and a total of 1000 times dilution. The bacteria liquid would be used to inoculate on the daughterplate. 100 μL of bacterial liquid was inoculated in each well of the daughterboard, 100 μL 7H9 medium was added to column 12 and without bacteria liquid.
The test daughterplate was placed in an incubator at 37° C. and the humidity was maintained at >80%. A week later, 12.5 μL of 7H9 medium containing 20% Tween 80 and 20 μL of Alamar Blue (Invitrogen DAL1100) were added to the well of a column 1 containing bacteria and the well of a column 12 without bacteria every day, and then continue to incubate for 24 hours and observed. When the added Alamar Blue was reduced to pink in 24 hours by the bacteria liquid in the well of column 1, the 7H9 medium containing 20% Tween 80 and Alamar Blue were added to all wells on the test plate and the fluorescence values were measured after incubation for 24 hours at 37° C.

[3] = tested on: M. tuberculosis H37R; assay: M. tuberculosis LORA MIC; format: cell-based; details: Mycobacterium tuberculosis, read-out: M. tuberculosis H37R LORA (MIC) (ug/mL)
[4] = tested on: Vero Cell; assay: Vero cell cytotoxicity; format: cell-based; details: Chlorocebus sabaeus, Vero cells
[5] = tested on: P-glycoprotein (MDR1); assay: MDR1-MDCK cell bi-directional permeability; format: in vitro ADME; details: dog
Excerpt: 2. MDR1-MDCK cell bi-directional permeability evaluation experiment: MDR1-MDCK cells that permanently express human P-glycoprotein (P-glycoprotein) were planted on 96-well Insert cell plates and cultured for 4 to 7 days to form aggregated monolayer cells. The assessment of unidirectional (A→B) permeability of the fenoterol (low permeability marker) and propranolol (high permeability marker) and the bi-directional permeability of Digoxin (a P-glycoprotein substrate) were used to verify the quality of monolayer cells. The three control compounds do two complex wells.
The standard conditions for the transport experiments of the test compound were as follows: • Test concentration: 2 μM (DMSO≤1%); • Repetition: n=3; • Direction: bidirectional transport consisting of two directions: A→B and B→A; • Incubation time: single time point, 2.5 hours; • Transport buffer: HB SS, pH 7.4; • Incubation conditions: 37° C., 5% CO2, 95% relative humidity.
After the incubation, the sample solutions taken from the donor wells and the receive wells were immediately mixed with a cold acetonitrile solution containing the internal standard. And the amount of accumulation of intracellular compounds was measured by lysing the cells with a cold acetonitrile solution containing the internal standard. The concentrations of the test compound in all samples (including the initial administration solution, the supernatant of donor wells, the receiver solution, the cell lysate) were analyzed by the LC/MS/MS method. The concentration of the test compound was expressed by the ratio of its peak area to the internal standard peak area.

[6] = Pharmacokinetics in vivo in mice; details: CD-1 male mice
Protocol: The pharmacokinetic characteristics of rodents after intravenous and oral administration of the compound were tested in a standard protocol. Specifically, the candidate compounds of the experiment were injected intravenously and administered orally for 7 to 10 weeks old CD-1 male mice. The oral preparation was a 0.5% suspension of methylcellulose, and the intravenous preparation was a clear solution of ethanol/DMSO/polyethylene glycol 400/pure water (10:10:50:30). Plasma and lung samples were collected and analyzed by the LC-MS/MS method and the pharmacokinetic parameters were calculated.

| SMILES | MIC [1] [µg/mL] | MIC [2] [µg/mL] | MIC [3] [µg/mL] | IC50 [4] [µg/mL] | Papp A→B at 2.5 h, 2 μM ([5]; A to B, HBSS pH 7.4, read-out: MDR1-MDCK Monolayer Cell Bi-directional Permeability Parameters A to B) [×10⁻⁶ cm/s] | Papp B→A at 2.5 h, 2 μM ([5]; B to A, HBSS pH 7.4, read-out: MDR1-MDCK Monolayer Cell Bi-directional Permeability Parameters B to A) [×10⁻⁶ cm/s] | Pulmonary Drug Concentration (nM/Kg) PO 1 (h) ([6]; lung, 1 h after administration) [nM/kg] | Cmax ([6]; mouse, oral, plasma) [nM] |
| --- | --- | --- | --- | --- | --- | --- | --- | --- |
| C[C@]1(CN2CCc3nc(-c4ccco4)ccc3C2)Cn2cc([N+](=O)[O-])nc2O1 [Compound 25, (S)-2-((2-(Furan-2-yl)-7,8-dihydro-1,6-naphthyridin-6(5H)-yl)methyl)-2-methyl-6-nitro-2,3-dihydroimidazo[2,1-b]oxazole] | < 1 | < 1 | 1 to 32 (≈ 2.62 to 83.9 µM) | > 32 | – | – | – | – |
| C[C@]1(CN2CCc3nc(-c4ccc(F)cc4)oc3C2)Cn2cc([N+](=O)[O-])nc2O1 [Compound 61, (S)-2-(4-Fluorophenyl)-5-((2-methyl-6-nitro-2,3-dihydroimidazo[2,1-b]oxazol-2-yl)methyl)-4,5,6,7-tetrahydrooxazolo[5,4-c]pyridine] | < 1 | < 1 | 1 to 32 (≈ 2.5 to 80.1 µM) | > 32 | – | – | – | – |
| C[C@]1(CN2CCc3nc(-c4cccc(F)c4)ccc3C2)Cn2cc([N+](=O)[O-])nc2O1 [Compound 6, (S)-2-((2-(3-Fluorophenyl)-7,8-dihydro-1,6-naphthyridin-6(5H)-yl)methyl)-2-methyl-6-nitro-2,3-dihydroimidazo[2,1-b]oxazole] | < 1 | < 1 | 1 to 32 (≈ 2.44 to 78.2 µM) | > 32 | – | – | – | – |
| C[C@]1(CN2CCc3nc(-c4ccccc4F)ccc3C2)Cn2cc([N+](=O)[O-])nc2O1 [Compound 5, (S)-2-((2-(2-Fluorophenyl)-7,8-dihydro-1,6-naphthyridin-6(5H)-yl)methyl)-2-methyl-6-nitro-2,3-dihydroimidazo[2,1-b]oxazole] | < 1 | < 1 | 1 to 32 (≈ 2.44 to 78.2 µM) | > 32 | – | – | – | – |
| C[C@]1(CN2CCc3nc(-c4cc(F)cc(F)c4)ccc3C2)Cn2cc([N+](=O)[O-])nc2O1 [Compound 14, (S)-2-((2-(3,5-Difluorophenyl)-7,8-dihydro-1,6-naphthyridin-6(5H)-yl)methyl)-2-methyl-6-nitro-2,3-dihydroimidazo[2,1-b]oxazole] | < 1 | < 1 | 1 to 32 (≈ 2.34 to 74.9 µM) | > 32 | – | – | – | – |
| C[C@]1(CN2CCc3nc(-c4ccc(Cl)c(F)c4)ccc3C2)Cn2cc([N+](=O)[O-])nc2O1 [Compound 20, (S)-2-((2-(4-Chloro-3-fluorophenyl)-7,8-dihydro-1,6-naphthyridin-6(5H)-yl)methyl)-2-methyl-6-nitro-2,3-dihydroimidazo[2,1-b]oxazole] | < 1 | < 1 | 1 to 32 (≈ 2.25 to 72.1 µM) | > 32 | – | – | – | – |
| C[C@]1(CN2CCc3nc(-c4ccc(F)c(F)c4)ccc3C2)Cn2cc([N+](=O)[O-])nc2O1 [Compound 12, (S)-2-((2-(3,4-Difluorophenyl)-7,8-dihydro-1,6-naphthyridin-6(5H)-yl)methyl)-2-methyl-6-nitro-2,3-dihydroimidazo[2,1-b]oxazole] | < 1 | < 1 | 1 to 32 (≈ 2.34 to 74.9 µM) | > 32 | – | – | – | – |
| C[C@]1(CN2CCCc3nc(-c4ccc(F)cc4)ccc3C2)Cn2cc([N+](=O)[O-])nc2O1 [Compound 96, (S)-2-((2-(4-Fluorophenyl)-8,9-dihydro-5H-pyrido[3,2-c]azepin-6(7H)-yl)methyl)-2-methyl-6-nitro-2,3-dihydroimidazo[2,1-b]oxazole] | < 1 | < 1 | 1 to 32 (≈ 2.36 to 75.6 µM) | > 32 | – | – | – | – |
| C[C@]1(CN2Cc3nc(-c4ccc(F)cc4Cl)sc3C2)Cn2cc([N+](=O)[O-])nc2O1 [Compound 77, (S)-2-((2-(2-chloro-4-fluorophenyl)-4H-pyrrolo[3,4-d]thiazol-5(6H)-yl)methyl)-2-methyl-6-nitro-2,3-dihydroimidazo[2,1-b]oxazole] | < 1 | < 1 | – | > 32 | – | – | – | – |
| C[C@]1(COc2ccc(N3CCC(Oc4ccc(OC(F)(F)F)cc4)CC3)cc2)Cn2cc([N+](=O)[O-])nc2O1 [OPC-67683, delamanid, reference compound] | – | – | – | – | 0.09 | 0.17 | 1677 | 4740 |
| C[C@]1(CN2Cc3nc(-c4ccc(F)cc4F)sc3C2)Cn2cc([N+](=O)[O-])nc2O1 [Compound 78, (S)-2-((2-(2,4-Difluorophenyl)-4H-pyrrolo[3,4-d]thiazol-5(6H)-yl)methyl)-2-methyl-6-nitro-2,3-dihydroimidazo[2,1-b]oxazole] | < 1 | < 1 | – | > 32 | – | – | – | – |
| C[C@]1(CN2Cc3nc(-c4cccc(F)c4)sc3C2)Cn2cc([N+](=O)[O-])nc2O1 [Compound 70, (S)-2-((2-(3-Fluorophenyl)-4H-pyrrolo[3,4-d]thiazol-5(6H)-yl)methyl)-2-methyl-6-nitro-2,3-dihydroimidazo[2,1-b]oxazole] | < 1 | < 1 | – | > 32 | – | – | – | – |
| C[C@]1(CN2Cc3nc(-c4ccc(F)c(F)c4)sc3C2)Cn2cc([N+](=O)[O-])nc2O1 [Compound 71, (S)-2-((2-(3,4-Difluorophenyl)-4H-pyrrolo[3,4-d]thiazol-5(6H)-yl)methyl)-2-methyl-6-nitro-2,3-dihydroimidazo[2,1-b]oxazole] | < 1 | < 1 | – | > 32 | – | – | – | – |
| C[C@]1(CN2CCc3nc(-c4ccc(F)cc4F)ccc3C2)Cn2cc([N+](=O)[O-])nc2O1 [Compound 13, (S)-2-((2-(2,4-Difluorophenyl)-7,8-dihydro-1,6-naphthyridin-6(5H)-yl)methyl)-2-methyl-6-nitro-2,3-dihydroimidazo[2,1-b]oxazole] | < 1 | < 1 | 1 to 32 (≈ 2.34 to 74.9 µM) | > 32 | – | – | – | – |
